In patent US10208021B2, “Substituted tetrahydroisoquinoline compounds as factor XIa inhibitors” (BRISTOL-MYERS SQUIBB COMPANY, priority 2011, dated 2019) one finds Ki data, which are given here for 39 compounds.

Structures can show the parent of a compound that is named as a salt.

The target in the first test is purified human Factor XIa (Homo sapiens (Human), UniProt P03951). In words: Factor XIa chromogenic substrate (S-2366) inhibition assay. The format is biochemical. The conditions noted are these: substrate S-2366, Table 1. In short, it runs like this: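 Ki derived from reaction velocities measured in the presence of inhibitor. Purified protease hydrolysed the chromogenic substrate; rate of absorbance change was followed over 20-180 minutes, depending on the protease.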
Chain of purified human Factor XIa (P03951 388-625): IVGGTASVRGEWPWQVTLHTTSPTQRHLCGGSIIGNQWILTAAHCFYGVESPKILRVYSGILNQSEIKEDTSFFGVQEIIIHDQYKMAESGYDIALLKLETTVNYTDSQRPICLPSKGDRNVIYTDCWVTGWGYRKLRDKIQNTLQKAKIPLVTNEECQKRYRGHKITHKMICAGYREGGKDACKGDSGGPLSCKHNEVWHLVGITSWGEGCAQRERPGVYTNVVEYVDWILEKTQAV
Chain of purified human Factor XIa (P03951 19-387 partner): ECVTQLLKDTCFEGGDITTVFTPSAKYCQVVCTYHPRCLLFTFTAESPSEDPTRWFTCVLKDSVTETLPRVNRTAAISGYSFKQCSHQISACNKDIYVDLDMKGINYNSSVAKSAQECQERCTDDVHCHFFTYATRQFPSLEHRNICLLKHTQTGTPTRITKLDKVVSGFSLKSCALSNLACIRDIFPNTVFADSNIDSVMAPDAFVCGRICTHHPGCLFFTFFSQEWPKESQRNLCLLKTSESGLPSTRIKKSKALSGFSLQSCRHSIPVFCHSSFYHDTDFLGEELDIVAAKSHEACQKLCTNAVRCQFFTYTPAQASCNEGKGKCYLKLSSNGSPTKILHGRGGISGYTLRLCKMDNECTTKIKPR
For the compound `CCOC(=O)c1ccc(NC(=O)C2c3cccc(N4CCC(N5CCCC5)CC4)c3CCN2C(=O)C=Cc2c(C(C)=O)ccc(Cl)c2F)cc1` (stereo not drawn) [Example 169], the affinity corresponds to a Ki of 517 nM.

With `CCOC(=O)c1ccc(NC(=O)[C@H]2c3cccc(N4CCNCC4=O)c3CCN2C(=O)/C=C/c2c(-n3cnnn3)ccc(Cl)c2F)cc1` [Example 189], the Ki is 1690 nM.

On to `CCOC(=O)c1ccc(NC(=O)[C@H]2c3cccc(N4CCN(C)CC4=O)c3CCN2C(=O)/C=C/c2c(-n3cnnn3)ccc(Cl)c2F)cc1` [Example 191, (R,E)-Ethyl 4-(2-(3-(3-chloro-2-fluoro-6-(1H-tetrazol-1-yl)phenyl)acryloyl)-5-(4-methyl-2-oxopiperazin-1-yl)-1,2,3,4-tetrahydroisoquinoline-1-carboxamido)benzoate, TFA Salt], for which the Ki is 1050 nM.

With `CC1(C)Cc2c(cccc2N2CCNCC2)[C@H](C(=O)Nc2ccc(C(=O)O)cc2)N1C(=O)/C=C/c1c(-n2cnnn2)ccc(Cl)c1F` [Example 193, (R,E)-4-(2-(3-(3-Chloro-2-fluoro-6-(1H-tetrazol-1-yl)phenyl)acryloyl)-3,3-dimethyl-5-(piperazin-1-yl)-1,2,3,4-tetrahydroisoquinoline-1-carboxamido) benzoic acid, bis-TFA salt], the inhibition constant Ki was 107 nM.

Compound `CC1(C)Cc2c(cccc2N2CCCCC2)[C@H](C(=O)Nc2ccc(C(=O)O)cc2)N1C(=O)/C=C/c1c(-n2cnnn2)ccc(Cl)c1F` [Example 196] returned an inhibitory constant (Ki) of 844 nM.

Consider `CCOC(=O)c1ccc(NC(=O)[C@H]2c3cccc(N4CCOCC4)c3CC(C)(C)N2C(=O)/C=C/c2c(-n3cnnn3)ccc(Cl)c2F)cc1` [Example 198], for which the affinity corresponds to a Ki of 5740 nM.

Turning to `CC(=O)c1ccc(Cl)c(F)c1/C=C/C(=O)N1CCc2c(cccc2N2CCS(=O)(=O)CC2)[C@@H]1C(=O)Nc1ccc(C(=O)O)cc1` [Example 216], the affinity corresponds to a Ki of 955 nM.

Staying with this test, now noted: substrate S-2366, activity ranges, Table A.
For `N#Cc1ccc(Cl)c(F)c1C=CC(=O)N1CCc2c(cccc2N2CCC(N3CCCC3)CC2)C1C(=O)Nc1ccc(C(=O)O)cc1` (stereo not drawn) [Example 164], the Ki is less than 5 nM.

With `CCOC(=O)c1ccc(NC(=O)C2c3cccc(N4CCC(N5CCCC5)CC4)c3CCN2C(=O)C=Cc2c(C#N)ccc(Cl)c2F)cc1` (stereo not drawn) [Example 166], the inhibitory constant (Ki) lay in the range of 5 to 10 nM.

In turn, `CC(=O)c1ccc(Cl)c(F)c1C=CC(=O)N1CCc2c(cccc2N2CCC(N3CCCC3)CC2)C1C(=O)Nc1ccc(C(=O)O)cc1` (stereo not drawn) [Example 167] had an inhibition constant (Ki) of 5 to 10 nM.

`CC(=O)c1ccc(Cl)c(F)c1C=CC(=O)N1CCc2c(cccc2N2CCC(N3CCCC3)CC2)C1C(=O)Nc1ccc(C(=O)O)cc1` (stereo not drawn) [Example 168] came in with a Ki of less than 5 nM.

`CCOC(=O)c1ccc(NC(=O)C2c3cccc(N4CCC(N5CCCC5)CC4)c3CCN2C(=O)C=Cc2c(C(C)=O)ccc(Cl)c2F)cc1` (stereo not drawn) [Example 170] displayed a Ki of less than 5 nM.

With `CC(=O)c1ccc(Cl)c(F)c1C=CC(=O)N1CCc2c(cccc2N2CCC(N3CCCC3)CC2)C1C(=O)Nc1ccc(C(=O)OCc2ccccc2)cc1` (stereo not drawn) [Example 171], the inhibition constant Ki fell in the range of 5 to 10 nM.

Consider `CC(=O)c1ccc(Cl)c(F)c1C=CC(=O)N1CCc2c(cccc2N2CCC(N3CCCC3)CC2)C1C(=O)Nc1ccc(C(=O)OCC(=O)N(C)C)cc1` (stereo not drawn) [Example 172], for which the Ki was less than 5 nM.

`CC(=O)c1ccc(Cl)c(F)c1C=CC(=O)N1CCc2c(cccc2N2CCC(N3CCCC3)CC2)C1C(=O)Nc1ccc(C(=O)OCCn2cncn2)cc1` (stereo not drawn) [Example 173] registered a Ki of 5 to 10 nM.

`COCCOC(=O)c1ccc(NC(=O)C2c3cccc(N4CCC(N5CCCC5)CC4)c3CCN2C(=O)C=Cc2c(C(C)=O)ccc(Cl)c2F)cc1` (stereo not drawn) [Example 174] came in with an inhibitory constant (Ki) of less than 5 nM.

`CCOC(=O)c1ccc(NC(=O)C2c3cccc(N4CCC(N5CCCC5)CC4)c3CCN2C(=O)C=Cc2c(C(F)(F)F)ccc(Cl)c2F)cc1` (stereo not drawn) [Example 177] gave an inhibition constant (Ki) of 5 to 10 nM.

In turn, `O=C(O)c1ccc(NC(=O)C2c3cccc(N4CCC(N5CCCC5)CC4)c3CCN2C(=O)C=Cc2c(C(F)(F)F)ccc(Cl)c2F)cc1` (stereo not drawn) [Example 178] returned an inhibition constant Ki of less than 5 nM.

Turning to `O=C(O)c1ccc(NC(=O)C2c3cccc(N4CCC(N5CCCC5)CC4)c3CCN2C(=O)C=Cc2c(C(F)(F)F)ccc(Cl)c2F)cc1` (stereo not drawn) [Example 179], the inhibition constant Ki lay within 100 to 500 nM.

`CCOC(=O)c1ccc(NC(=O)C2c3cccc(N4CCOCC4)c3CCN2C(=O)C=Cc2c(-n3cnnn3)ccc(Cl)c2F)cc1` (stereo not drawn) [Example 185] gave an inhibitory constant (Ki) of 5 to 10 nM.

In turn, `CCOC(=O)c1ccc(NC(=O)C2c3cccc(N4CCOCC4)c3CCN2C(=O)C=Cc2c(-n3cnnn3)ccc(Cl)c2F)cc1` (stereo not drawn) [Example 186] registered a Ki of 500 to 5000 nM.

With `CCOC(=O)c1ccc(NC(=O)[C@@H]2c3cccc(N4CCNCC4=O)c3CCN2C(=O)/C=C/c2c(-n3cnnn3)ccc(Cl)c2F)cc1` [Example 190], the Ki lay within 5 to 10 nM.

The compound `CCOC(=O)c1ccc(NC(=O)[C@@H]2c3cccc(N4CCN(C)CC4=O)c3CCN2C(=O)/C=C/c2c(-n3cnnn3)ccc(Cl)c2F)cc1` [Example 192, (S,E)-Ethyl 4-(2-(3-(3-chloro-2-fluoro-6-(1H-tetrazol-1-yl)phenyl)acryloyl)-5-(4-methyl-2-oxopiperazin-1-yl)-1,2,3,4-tetrahydroisoquinoline-1-carboxamido)benzoate, TFA Salt] came in with a Ki of 5 to 10 nM.

`CC1(C)Cc2c(cccc2N2CCNCC2)[C@@H](C(=O)Nc2ccc(C(=O)O)cc2)N1C(=O)/C=C/c1c(-n2cnnn2)ccc(Cl)c1F` [Example 194, (S,E)-4-(2-(3-(3-Chloro-2-fluoro-6-(1H-tetrazol-1-yl)phenyl)acryloyl)-3,3-dimethyl-5-(piperazin-1-yl)-1,2,3,4-tetrahydroisoquinoline-1-carboxamido) benzoic acid, bis-TFA salt] had a Ki of less than 5 nM.

For `CC1(C)Cc2c(cccc2N2CCCCC2)[C@@H](C(=O)Nc2ccc(C(=O)O)cc2)N1C(=O)/C=C/c1c(-n2cnnn2)ccc(Cl)c1F` [Example 195], the Ki is less than 5 nM.

As to `CCOC(=O)c1ccc(NC(=O)[C@@H]2c3cccc(N4CCOCC4)c3CC(C)(C)N2C(=O)/C=C/c2c(-n3cnnn3)ccc(Cl)c2F)cc1` [Example 197], the inhibitory constant (Ki) was 5 to 10 nM.

`CC1(C)Cc2c(cccc2N2CCOCC2)[C@@H](C(=O)Nc2ccc(C(=O)O)cc2)N1C(=O)/C=C/c1c(-n2cnnn2)ccc(Cl)c1F` [Example 199] yielded a Ki of less than 5 nM.

`CC1(C)Cc2c(cccc2N2CCOCC2)[C@H](C(=O)Nc2ccc(C(=O)O)cc2)N1C(=O)/C=C/c1c(-n2cnnn2)ccc(Cl)c1F` [Example 200] gave an inhibitory constant (Ki) of 100 to 500 nM.

As to `CN1CCN(c2cccc3c2CC(C)(C)N(C(=O)/C=C/c2c(-n4cnnn4)ccc(Cl)c2F)[C@@H]3C(=O)Nc2ccc(C(=O)O)cc2)CC1` [Example 201], the Ki is less than 5 nM.

Regarding `CN1CCN(c2cccc3c2CC(C)(C)N(C(=O)/C=C/c2c(-n4cnnn4)ccc(Cl)c2F)[C@H]3C(=O)Nc2ccc(C(=O)O)cc2)CC1` [Example 202], the Ki lay in the range of 100 to 500 nM.

Turning to `CCOC(=O)c1ccc(NC(=O)[C@@H]2c3cccc(N4CCN(C)CC4)c3CC(C)(C)N2C(=O)/C=C/c2c(-n3cnnn3)ccc(Cl)c2F)cc1` [Example 203], the inhibition constant Ki lay within 5 to 10 nM.

The compound `CC(=O)N1CCN(c2cccc3c2CC(C)(C)N(C(=O)/C=C/c2c(-n4cnnn4)ccc(Cl)c2F)[C@@H]3C(=O)Nc2ccc(C(=O)O)cc2)CC1` [Example 204] gave a Ki of less than 5 nM.

`CC(=O)N1CCN(c2cccc3c2CC(C)(C)N(C(=O)/C=C/c2c(-n4cnnn4)ccc(Cl)c2F)[C@H]3C(=O)Nc2ccc(C(=O)O)cc2)CC1` [Example 205] had an inhibitory constant (Ki) of 5 to 10 nM.

`CN(C)[C@H]1CCN(c2cccc3c2CCN(C(=O)/C=C/c2c(-n4cnnn4)ccc(Cl)c2F)[C@@H]3C(=O)Nc2ccc(C(=O)O)cc2)C1` [Example 206, 4-((S)-2-((E)-3-(3-Chloro-2-fluoro-6-(1H-tetrazol-1-yl)phenyl)acryloyl)-5-((S)-3-(dimethylamino)pyrrolidin-1-yl)-1,2,3,4-tetrahydroisoquinoline-1-carboxamido)benzoic acid, bis-TFA Salt] gave a Ki of less than 5 nM.

Compound `CN(C)[C@H]1CCN(c2cccc3c2CCN(C(=O)/C=C/c2c(-n4cnnn4)ccc(Cl)c2F)[C@@H]3C(=O)Nc2ccc(C(=O)OC(C)(C)C)cc2)C1` [Example 207, tert-butyl 4-((S)-2-((E)-3-(3-chloro-2-fluoro-6-(1H-tetrazol-1-yl)phenyl)acryloyl)-5-((S)-3-(dimethylamino)pyrrolidin-1-yl)-1,2,3,4-tetrahydroisoquinoline-1-carboxamido)benzoate, bis TFA salt] returned an inhibition constant Ki of 5 to 10 nM.

Take `CN(C)[C@H]1CCN(c2cccc3c2CCN(C(=O)/C=C/c2c(-n4cnnn4)ccc(Cl)c2F)[C@H]3C(=O)Nc2ccc(C(=O)O)cc2)C1` [Example 208, 4-((R)-2-((E)-3-(3-Chloro-2-fluoro-6-(1H-tetrazol-1-yl)phenyl)acryloyl)-5-((S)-3-(dimethylamino)pyrrolidin-1-yl)-1,2,3,4-tetrahydroisoquinoline-1-carboxamido)benzoic acid, bis-TFA salt]: the Ki is less than 5 nM.

With `CN(C)[C@@H]1CCN(c2cccc3c2CCN(C(=O)/C=C/c2c(-n4cnnn4)ccc(Cl)c2F)[C@H]3C(=O)Nc2ccc(C(=O)O)cc2)C1` [Example 209, 4-((R)-2-((E)-3-(3-Chloro-2-fluoro-6-(1H-tetrazol-1-yl)phenyl)acryloyl)-5-((R)-3-(dimethylamino)pyrrolidin-1-yl)-1,2,3,4-tetrahydroisoquinoline-1-carboxamido)benzoic acid, bis TFA salt], the Ki is less than 5 nM.

In the case of `CN(C)[C@@H]1CCN(c2cccc3c2CCN(C(=O)/C=C/c2c(-n4cnnn4)ccc(Cl)c2F)[C@@H]3C(=O)Nc2ccc(C(=O)O)cc2)C1` [Example 210, 4-((S)-2-((E)-3-(3-Chloro-2-fluoro-6-(1H-tetrazol-1-yl)phenyl)acryloyl)-5-((R)-3-(dimethylamino)pyrrolidin-1-yl)-1,2,3,4-tetrahydroisoquinoline-1-carboxamido)benzoic acid, bis-TFA salt], the inhibition constant Ki was less than 5 nM.

As for `CC(=O)c1ccc(Cl)c(F)c1/C=C/C(=O)N1CCc2c(cccc2N2CCS(=O)(=O)CC2)[C@H]1C(=O)Nc1ccc(C(=O)O)cc1` [Example 217], the Ki is less than 5 nM.
